“Also recorded” adds a separate entry of the source. Read-outs that look alike come from different tables or passages of the source. Each block holds one compound with its values, some of them ahead of it.
Key:
mushroom tyrosinase [1] = conditions: cited from earlier work
melanoma cells = test system: melanoma cells; parameters: method as in PMID 28393917; conditions: cited from earlier work
[2] = parameters: method as in PMID 33640246; conditions: at 8 µM; cited from earlier work
[3] = MTT assay for cell viability, A375; format: cell-based; conditions: human, A375 cells, 48 h, mean ± S.E.M.
Method: (§1) The cytotoxic activity of all derivatives against the HEK 293 cell line and 10g against A375 (at a density of 5 × 10^3 cells/ml) using 3-(4,5-dimethylthiazol-2-yl)-2,5- diphenyltetrazolium bromide (MTT) assay were performed. Cells were grown at 37 °C in the presence of CO2 5% in DMEM (Gibco BRL, Grand Island, NY, USA), 10% fetal bovine serum (FBS, Gibco BRL), and penicillin/streptomycin (100 IU/mL and 100 µg/mL, respectively). Next cells were seeded in a 96-well plate and incubated at 37 ^∘C with derivatives at different concentrations for 48 h. Following the treatment, cells were incubated with MTT (0.5 mg/ml) at 37 ^∘C for 3 h. The MTT-containing medium was then removed, and 100 μl of DMSO was added to each well, mixed thoroughly with a 10 min shake to dissolve formazan crystals. The absorbance of each well was measured at 540 nm[33].

A375 cells = experiment: MTT assay for cell viability, A375; format: cell-based; conditions: up to 32 μM
Method: as §1

mushroom tyrosinase [4] = experiment: Enzyme kinetic study (Lineweaver–Burk plot); format: biochemical
Method: The Lineweaver–Burk reciprocal plot was provided by plotting 1/V against 1/[S] at variable concentrations of the substrate L-Dopa (0.25, 0.5, 0.75, and 1 mM) The inhibition constant Ki was achieved by the plot of slopes versus the corresponding concentrations of the compound 10g[24].

[5] = target: T1, Mushroom tyrosinase (EC 1.14.18.1) (Agaricus bisporus, UniProt C7FF04); experiment: Tyrosinase inhibitory assay (colorimetric, diphenolase activity, L-Dopa); format: biochemical; conditions: L-Dopa as substrate; means ± RSD of 3 independent experiments
T1 construct: purchased Sigma Chemical Co
Method: Mushroom tyrosinase (EC 1.14.18.1) (Sigma Chemical Co.) was assayed using L-Dopa as the substrate as reported in our previous studies with some modifications[30]–[32]. The enzyme diphenolase activity was monitored spectrophotometrically by observing dopachrome formation at 490 nm. All the test samples were first dissolved in DMSO at 10 mM and diluted to the required concentrations. Initially, in a 96-well microplate, 10 µl of test samples were added to 160 µl of 50 mM phosphate buffer (pH = 6.8) and then 10 µl tyrosinase (500 U mL^−1) was added. After the mixture was pre-incubated at 28 °C for 20 min, 20 µl of L-Dopa solution (7 mM) was added to the mixture. After 10 min incubation absorbance of samples was measured. DMSO without test compounds was used as the control, and kojic acid was used as a positive control. Each assay was conducted as three separate replicates. The inhibitory activity of the tested compounds was expressed as the concentration that inhibited 50% of the enzyme activity (IC50). […]

tyrosinase = experiment: Fluorescence quenching of tyrosinase (Stern–Volmer); format: binding
Method: The fluorescent measurements were carried out in each well of the black 96 well plate by adding various concentrations of inhibitor 10g, (Q = 5, 10, 20, 40, and 100 µM) to a constant concentration of tyrosinase (273 IU/mL). Next, phosphate buffer solution (0.05 M, pH = 6.8) was used to bring the capacity of each well to 200 µL. Before measurements, all solutions were properly mixed and allowed to stand for 20 min at 298 K and 304 K. A fluorescence spectrometer (BioTek’s multi-mode plate reader, USA) was used to measure the fluorescence spectra. The bandwidths of excitation and emission were both set at 5 nm, and fluorescence emission spectra were captured spanning the wavelength range of 310–400 nm at an excitation wavelength of 280 nm.
The linear Stern–Volmer Eq. (1) was used to examine the fluorescence quenching:1 F0/F=1+kqτ0Q=1+kSV[Q] where, F and F0 represent the fluorescence intensity in the presence or absence of inhibitors, respectively. The bimolecular quenching constant is denoted by the symbol kq, whereas the average lifespan of a biomolecule without a quencher is denoted by the symbol τ0, and its value is 10^−8 s. [Q] refers to the inhibitor concentration (µM). KSV which is calculated by kq . τ0. is the fluorescence quenching constant.
In order to calculate the apparent binding constant and binding fraction of fluorophore group of tyrosinase accessible to inhibitor 10g, Stern–Volmer Eq. (1) should be modified to Eq. (2):2 LogF0-F/F=log KA+n LogQ
In this equation, KA indicates either the modified apparent binding constant or the Stern–Volmer quenching constant. n represents the fraction of fluorophore accessible to the quencher. The intercept of the curve that is obtained by plotting log (F0-F/F) versus log [Q] is log KA, and the slope of the curve is n. Therefore, the intercept and slope data may be used to calculate the values of KA and n.

A375 cell line = experiment: Melanin content assay; format: cell-based; conditions: A375, 48 h, at tested concentrations, kojic acid positive control
Method: The assay was performed according to previously reported procedures. In detail, A375 cells were seeded in six-well plates (2.0 × 10^5 cells/well). After 24 h, the medium was replaced by a fresh one and treated with 10g at different concentrations and the plate was incubated for an extra 48 h. After that cells were washed twice with PBS and harvested using […], then dissolved in 300 μl of 1 N NaOH/10% DMSO buffer and boiled for 2 h at 80 °C to solubilize the melanin. The absorbance of the supernatant was measured at 470 nm in a microplate reader. The obtained results were normalized using total protein content. Kojic acid was used as a positive[30],[34].

[6] = MTT assay for cell viability, HEK 293; format: cell-based; conditions: human, HEK 293 cells, 48 h, MTT, mean ± S.E.M.
Method: as §1

HEK 293 cell line = experiment: MTT assay for cell viability, HEK 293; format: cell-based; conditions: HEK 293, 32 µM, 48 h, MTT; mean ± S.E.M.; 32 µM
Method: as §1

T1 sequence (C7FF04 1-392 limits assumed): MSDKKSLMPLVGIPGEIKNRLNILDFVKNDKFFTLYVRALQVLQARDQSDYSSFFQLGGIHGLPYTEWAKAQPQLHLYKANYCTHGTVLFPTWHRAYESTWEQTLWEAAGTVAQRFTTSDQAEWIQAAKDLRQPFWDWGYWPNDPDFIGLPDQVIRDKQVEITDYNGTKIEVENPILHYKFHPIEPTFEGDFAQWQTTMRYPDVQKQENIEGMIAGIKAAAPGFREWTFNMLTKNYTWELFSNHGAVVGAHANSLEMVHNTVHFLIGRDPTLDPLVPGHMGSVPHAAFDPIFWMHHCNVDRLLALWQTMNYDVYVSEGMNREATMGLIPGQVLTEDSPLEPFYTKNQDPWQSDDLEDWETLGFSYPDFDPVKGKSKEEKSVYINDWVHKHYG

SMILES: Oc1cnc2c(O)cccc2c1 [Jineol]
IC50 (mushroom tyrosinase [1]; L-Dopa as substrate): 50.35 ± 0.05 µM
IC50 (mushroom tyrosinase [1]; L-tyrosine as substrate): 39.46 ± 0.01 µM
effect on melanin content (melanoma cells): reduced melanin content

SMILES: O=c1cc(CSc2nc3ccccc3c(=O)n2Cc2ccccn2)occ1O [C]
melanin content [2]: 68.99%

Km (mushroom tyrosinase [4]; 10g 1 µM): 800 µM
Vmax (mushroom tyrosinase [4]; 10g 1 µM): 80.00 mM/min
Km (mushroom tyrosinase [4]; 10g 10 µM): 850 µM
Vmax (mushroom tyrosinase [4]; 10g 10 µM): 67.57 mM/min
Km (mushroom tyrosinase [4]; 10g 20 µM): 850 µM
Vmax (mushroom tyrosinase [4]; 10g 20 µM): 50.25 mM/min
Km (mushroom tyrosinase [4]; 10g 40 µM): 950 µM
inhibition pattern (type of inhibition) (mushroom tyrosinase [4]; Lineweaver–Burk plot, L-Dopa as substrate): noncompetitive
IC50 [5]: 25.7 µM
KA (binding constant) (tyrosinase; 298 K): 71150 L/mol
Kq (bimolecular quenching constant) (tyrosinase; 298 K): 6.69 × 10^12 L⋅mol^–1⋅s^–1
Ksv (Stern–Volmer constant) (tyrosinase; 298 K): 6.69 × 10^4 L.mol^–1
n (binding sites) (tyrosinase; 298 K): 0.9288
n (binding sites) (tyrosinase; 298 K and 304 K): ~1
Kq (bimolecular quenching constant) (tyrosinase; 298 K and 304 K, all values): higher than 2 × 10^10 L⋅mol^−1⋅s^−1
KA (binding constant) (tyrosinase; 304 K): 52200 L/mol
Kq (bimolecular quenching constant) (tyrosinase; 304 K): 5.14 × 10^12 L⋅mol^–1⋅s^–1
Ksv (Stern–Volmer constant) (tyrosinase; 304 K): 5.14 × 10^4 L.mol^–1
n (binding sites) (tyrosinase; 304 K): 1.0604
melting point: 185 to 191 °C
SMILES: NC(=S)N/N=C/c1cc2ccccc2nc1SCC(=O)Nc1ccc(Cl)cc1 [Compound 10g, (E)-2-((3-((2-carbamothioylhydrazono)methyl)quinolin-2-yl)thio)-N-(4-chlorophenyl)acetamide]
viability at 48 h, 16 µM ([3]; A375, 16 µM): 93.7 ± 2.24%
viability at 48 h, 32 µM ([3]; A375, 32 µM): 87.5 ± 1.53%
viability at 48 h, 64 µM ([3]; A375, 64 µM): 61.2 ± 3.91%
toxicity on A375 cell line (A375 cells): did not show significant toxicity
effect on melanin content (A375 cell line): reduced the melanin content; also recorded: significant reduction of melanin content
viability at 48 h, 16 µM ([6]; HEK 293, 16 µM): 92.7 ± 1.47%
viability at 48 h, 32 µM ([6]; HEK 293, 32 µM): > 85%
viability at 48 h, 64 µM ([6]; HEK 293, 64 µM): 72.5 ± 2.41%
Cell viability (%) (HEK 293 cell line): 86.14 ± 2.17%
